Series [1] is described as follows: Intrinsic clearance in human liver microsomes assessed per mg protein at 1 uM measured after 60 mins. Conditions: read-out: CLH. It is filed as ADME, Microsome.
The nature of series [2]: Intrinsic clearance in cynomolgus monkey hepatocytes at 1 uM measured after 120 mins. Conditions: 2 h. Type of series: ADME, cell-based, Macaca fascicularis, Hepatocyte.
In series [3] the target is Toll-like receptor 2 (Homo sapiens) (UniProt O60603). Description: Agonist activity at wild-type human TLR2 expressed in HEK293 cells up to 25 uM measured after 6 hrs by NF-kappaB luciferase reporter gene assay. Type of series: cell-based. (In a reporter assay the amount or activity of a reporter protein is the signal.)
A short description of series [4]: Oral bioavailability in cynomolgus monkey at 9 mg/kg, measured after 24 hrs. It is filed as ADME, organism-based, Macaca fascicularis. To be noted: in vivo.
The test system of the next series is HepG2. Description: Cytotoxicity against human HepG2 cells measured after 72 hrs by multiplex end point analysis. Type of series: cell-based. Conditions: hepg2, 72 h.
A short description of series [5]: Tmax in cynomolgus monkey plasma at 30 mg/kg, administered through oral gavage measured after 24 hrs. It is filed as ADME, organism-based, Macaca fascicularis.
The nature of series [6]: Cmax in Sprague-Dawley rat liver at 10 mg/kg, po. It is filed as ADME, organism-based. Set-up: dose 10 mg/kg, route oral.
Series [7] addresses T1, Toll-like receptor 9 (Homo sapiens) (UniProt Q9NR96).
T1 sequence (whole entry): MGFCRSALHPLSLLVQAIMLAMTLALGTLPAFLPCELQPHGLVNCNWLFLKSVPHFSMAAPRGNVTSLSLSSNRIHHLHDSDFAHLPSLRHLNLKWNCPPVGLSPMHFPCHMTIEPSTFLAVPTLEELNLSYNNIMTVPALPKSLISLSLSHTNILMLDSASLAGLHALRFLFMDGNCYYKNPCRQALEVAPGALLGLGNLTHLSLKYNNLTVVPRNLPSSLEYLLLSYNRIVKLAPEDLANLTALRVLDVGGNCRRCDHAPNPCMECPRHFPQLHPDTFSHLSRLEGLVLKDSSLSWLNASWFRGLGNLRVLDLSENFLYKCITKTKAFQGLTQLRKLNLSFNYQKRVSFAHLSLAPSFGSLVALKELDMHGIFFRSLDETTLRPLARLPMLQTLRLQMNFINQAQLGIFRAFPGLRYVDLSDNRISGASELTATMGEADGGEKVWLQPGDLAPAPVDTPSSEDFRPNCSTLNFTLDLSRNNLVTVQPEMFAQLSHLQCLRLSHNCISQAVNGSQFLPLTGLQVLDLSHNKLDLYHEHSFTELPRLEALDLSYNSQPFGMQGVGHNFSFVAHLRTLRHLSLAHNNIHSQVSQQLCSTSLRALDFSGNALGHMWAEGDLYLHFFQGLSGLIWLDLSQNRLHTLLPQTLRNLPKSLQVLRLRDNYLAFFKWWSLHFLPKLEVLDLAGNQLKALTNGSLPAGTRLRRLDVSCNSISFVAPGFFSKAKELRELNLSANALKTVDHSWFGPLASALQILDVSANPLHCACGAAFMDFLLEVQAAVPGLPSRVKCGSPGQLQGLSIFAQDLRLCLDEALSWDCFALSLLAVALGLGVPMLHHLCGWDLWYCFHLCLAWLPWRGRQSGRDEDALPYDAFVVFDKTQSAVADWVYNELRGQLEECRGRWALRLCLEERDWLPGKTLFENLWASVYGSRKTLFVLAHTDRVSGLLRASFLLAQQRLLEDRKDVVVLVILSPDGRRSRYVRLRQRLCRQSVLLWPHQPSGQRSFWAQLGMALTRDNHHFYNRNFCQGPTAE
The series is described as follows: Agonist activity at wild-type human TLR9 expressed in HEK293 cells up to 25 uM measured after 6 hrs by NF-kappaB luciferase reporter gene assay. Type of series: cell-based.

The nature of series [8]: Solubility of the compound. Type of series: physicochemical.
Series [9] can be described thus: Plasma concentration in C57Bl/6 mouse infected with HBV genotype D at 5 mg/kg, po dosed once per week for 8 weeks and measured after 164 hrs after dosing prior to subsequent dosing. It is filed as ADME, organism-based. To be noted: in vivo.
Series [10] in a line: Cmax in Sprague-Dawley rat plasma at 10 mg/kg, po. It is filed as ADME, organism-based. Set-up: dose 10 mg/kg, route oral.
A short description of series [11]: AUC(0 to last) in cynomolgus monkey plasma at 30 mg/kg, administered through oral gavage measured after 24 hrs. Type of series: ADME, organism-based, Macaca fascicularis. On the set-up: dose 30 mg/kg, time 0 - last, route oral.
Series [12] in a line: Cmax in cynomolgus monkey plasma at 9 mg/kg, administered through oral gavage measured after 24 hrs. Type of series: ADME, organism-based, Macaca fascicularis. On the set-up: dose 9 mg/kg, route oral.
Series [13] in a line: Intrinsic clearance in cynomolgus monkey liver microsomes assessed per mg protein at 1 uM measured after 60 mins. To be noted: read-out: CLH. Type of series: ADME, Macaca fascicularis, Microsome.
Series [14] is described as follows: Ratio of drug level in Sprague-Dawley rat liver to plasma at 10 mg/kg, po. Type of series: ADME, organism-based. Conditions: liver and plasma.
Series [15] is described as follows: Oral bioavailability in cynomolgus monkey at 30 mg/kg, measured after 24 hrs. Type of series: ADME, organism-based, Macaca fascicularis. Conditions: in vivo.
The nature of series [16]: Intrinsic clearance in Sprague-Dawley rat hepatocytes at 1 uM measured after 120 mins. Type of series: ADME, cell-based, Hepatocyte. To be noted: 2 h.
The target in series [17] is T2, Toll-like receptor 6 (Homo sapiens) (UniProt Q9Y2C9).
T2 sequence (whole entry): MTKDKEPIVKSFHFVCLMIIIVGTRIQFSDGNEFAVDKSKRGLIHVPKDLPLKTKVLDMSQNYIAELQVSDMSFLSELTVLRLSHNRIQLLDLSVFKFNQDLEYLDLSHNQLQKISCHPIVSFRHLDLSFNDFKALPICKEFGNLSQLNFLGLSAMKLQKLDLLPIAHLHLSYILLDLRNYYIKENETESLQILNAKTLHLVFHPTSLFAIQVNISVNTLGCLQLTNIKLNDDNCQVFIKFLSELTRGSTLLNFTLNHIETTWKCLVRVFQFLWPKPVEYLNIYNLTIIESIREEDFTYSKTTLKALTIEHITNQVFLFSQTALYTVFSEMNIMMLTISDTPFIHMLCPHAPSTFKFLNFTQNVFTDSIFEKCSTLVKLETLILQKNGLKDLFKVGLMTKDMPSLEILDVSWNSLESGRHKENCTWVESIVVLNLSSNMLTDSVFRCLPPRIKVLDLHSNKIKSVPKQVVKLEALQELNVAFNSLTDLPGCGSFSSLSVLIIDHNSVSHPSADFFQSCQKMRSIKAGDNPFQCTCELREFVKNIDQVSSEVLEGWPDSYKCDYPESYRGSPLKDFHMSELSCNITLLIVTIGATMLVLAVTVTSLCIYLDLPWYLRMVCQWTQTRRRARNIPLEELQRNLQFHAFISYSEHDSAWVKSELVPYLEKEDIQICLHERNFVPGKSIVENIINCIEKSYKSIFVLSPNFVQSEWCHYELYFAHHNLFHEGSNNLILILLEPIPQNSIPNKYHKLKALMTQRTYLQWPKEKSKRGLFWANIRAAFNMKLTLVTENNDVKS
Description: Agonist activity at wild-type human TLR6 expressed in HEK293 cells up to 25 uM measured after 6 hrs by NF-kappaB luciferase reporter gene assay. It is filed as cell-based.

Series [18] in a line: Intrinsic clearance in dog hepatocytes at 1 uM measured after 120 mins. It is filed as ADME, cell-based, Canis lupus familiaris, Hepatocyte. To be noted: 2 h.
The target in series [19] is Toll-like receptor 3 (Homo sapiens) (UniProt O15455). The series is described as follows: Agonist activity at wild-type human TLR3 expressed in HEK293 cells up to 25 uM measured after 6 hrs by NF-kappaB luciferase reporter gene assay. Type of series: cell-based.
Series [20] is described as follows: AUC(0 to last) in cynomolgus monkey plasma at 9 mg/kg, administered through oral gavage measured after 24 hrs. Type of series: ADME, organism-based, Macaca fascicularis. On the set-up: dose 9 mg/kg, route oral, time 0 - last.
Series [21] concerns the target Toll-like receptor 5 (Homo sapiens) (UniProt O60602). Description: Agonist activity at wild-type human TLR5 expressed in HEK293 cells up to 25 uM measured after 6 hrs by NF-kappaB luciferase reporter gene assay. Type of series: cell-based.
Series [22] is described as follows: Tmax in Sprague-Dawley rat liver at 10 mg/kg, po. It is filed as ADME, organism-based.

Active and inactive are the calls of the source. The calls are words filed in the database; no cut-off is given here.

Sequence of Toll-like receptor 5 (Homo sapiens) (O60602 whole entry): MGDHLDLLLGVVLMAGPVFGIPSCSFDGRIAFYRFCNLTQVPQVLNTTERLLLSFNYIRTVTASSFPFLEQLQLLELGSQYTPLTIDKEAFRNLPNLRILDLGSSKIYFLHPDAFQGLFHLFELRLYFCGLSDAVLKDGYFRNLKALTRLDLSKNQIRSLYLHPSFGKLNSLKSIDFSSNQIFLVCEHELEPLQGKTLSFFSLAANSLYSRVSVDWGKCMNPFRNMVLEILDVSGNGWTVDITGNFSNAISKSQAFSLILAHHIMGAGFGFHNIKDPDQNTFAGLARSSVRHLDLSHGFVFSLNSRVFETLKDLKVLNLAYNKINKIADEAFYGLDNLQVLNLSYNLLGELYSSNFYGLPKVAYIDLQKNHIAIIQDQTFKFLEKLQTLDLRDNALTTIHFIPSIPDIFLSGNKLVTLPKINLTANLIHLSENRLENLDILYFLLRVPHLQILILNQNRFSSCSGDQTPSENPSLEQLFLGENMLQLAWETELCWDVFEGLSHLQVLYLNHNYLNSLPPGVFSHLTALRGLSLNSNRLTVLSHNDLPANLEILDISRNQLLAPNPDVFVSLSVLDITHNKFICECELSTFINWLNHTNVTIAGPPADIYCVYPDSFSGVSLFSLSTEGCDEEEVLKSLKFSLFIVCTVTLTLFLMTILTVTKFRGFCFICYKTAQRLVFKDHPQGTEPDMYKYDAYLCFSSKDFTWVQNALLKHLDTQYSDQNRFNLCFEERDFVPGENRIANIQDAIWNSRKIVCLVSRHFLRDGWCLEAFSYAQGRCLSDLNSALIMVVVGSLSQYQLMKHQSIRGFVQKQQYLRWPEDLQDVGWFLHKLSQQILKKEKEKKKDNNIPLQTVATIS
Sequence of Toll-like receptor 2 (Homo sapiens) (O60603 whole entry): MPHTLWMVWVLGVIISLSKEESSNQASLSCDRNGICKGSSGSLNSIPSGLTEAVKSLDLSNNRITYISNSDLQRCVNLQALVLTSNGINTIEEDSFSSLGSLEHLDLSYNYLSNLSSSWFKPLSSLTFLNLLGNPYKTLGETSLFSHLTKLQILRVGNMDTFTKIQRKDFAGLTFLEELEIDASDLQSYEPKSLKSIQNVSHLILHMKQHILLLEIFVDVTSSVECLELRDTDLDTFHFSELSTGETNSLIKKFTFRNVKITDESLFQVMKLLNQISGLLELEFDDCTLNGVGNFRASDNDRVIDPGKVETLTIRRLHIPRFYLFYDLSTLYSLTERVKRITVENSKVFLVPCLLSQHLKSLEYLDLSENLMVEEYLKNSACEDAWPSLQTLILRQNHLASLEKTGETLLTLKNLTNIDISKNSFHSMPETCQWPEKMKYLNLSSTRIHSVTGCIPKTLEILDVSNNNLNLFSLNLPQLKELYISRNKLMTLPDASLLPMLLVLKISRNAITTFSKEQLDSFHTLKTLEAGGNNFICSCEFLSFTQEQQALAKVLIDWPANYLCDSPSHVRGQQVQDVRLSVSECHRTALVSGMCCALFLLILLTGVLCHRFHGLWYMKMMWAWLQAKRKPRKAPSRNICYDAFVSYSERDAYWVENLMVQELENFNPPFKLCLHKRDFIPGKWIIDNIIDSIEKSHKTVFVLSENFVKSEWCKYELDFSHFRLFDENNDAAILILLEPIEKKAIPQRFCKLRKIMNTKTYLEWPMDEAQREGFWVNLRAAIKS
Sequence of Toll-like receptor 3 (Homo sapiens) (O15455 whole entry): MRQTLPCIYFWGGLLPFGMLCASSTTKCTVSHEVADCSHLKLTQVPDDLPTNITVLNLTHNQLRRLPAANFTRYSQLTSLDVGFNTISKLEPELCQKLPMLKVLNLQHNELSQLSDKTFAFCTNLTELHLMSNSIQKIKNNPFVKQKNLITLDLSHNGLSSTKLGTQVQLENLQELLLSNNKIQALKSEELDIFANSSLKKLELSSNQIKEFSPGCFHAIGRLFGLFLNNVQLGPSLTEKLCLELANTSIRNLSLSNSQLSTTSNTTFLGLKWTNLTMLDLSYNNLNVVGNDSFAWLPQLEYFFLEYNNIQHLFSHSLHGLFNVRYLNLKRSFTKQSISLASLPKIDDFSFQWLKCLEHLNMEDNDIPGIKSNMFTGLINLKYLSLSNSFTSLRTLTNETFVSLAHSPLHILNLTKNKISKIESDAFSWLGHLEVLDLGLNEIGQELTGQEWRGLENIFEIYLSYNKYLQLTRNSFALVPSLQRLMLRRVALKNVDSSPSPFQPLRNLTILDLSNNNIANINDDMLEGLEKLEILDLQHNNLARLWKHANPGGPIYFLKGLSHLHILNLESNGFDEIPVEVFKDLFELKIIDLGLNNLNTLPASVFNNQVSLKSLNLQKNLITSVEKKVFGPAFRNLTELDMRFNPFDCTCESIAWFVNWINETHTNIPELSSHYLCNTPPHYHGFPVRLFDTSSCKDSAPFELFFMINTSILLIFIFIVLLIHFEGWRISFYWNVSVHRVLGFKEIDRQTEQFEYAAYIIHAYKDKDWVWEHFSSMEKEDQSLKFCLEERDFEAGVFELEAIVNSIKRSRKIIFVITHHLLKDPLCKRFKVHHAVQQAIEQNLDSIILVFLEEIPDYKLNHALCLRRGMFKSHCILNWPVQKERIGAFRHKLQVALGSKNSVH

Regarding `CCCC[C@@H](CCO)Nc1nc(N)ncc1OC`, the microsomal CLint at 1 µM was below 4 µL/min/mg in [1] and 8 µL/min/mg in series [13]. Also, the CLH stood at 103 µL/min in series [2], 68 µL/min in series [16] and 99 µL/min in series [18]. Besides, the result in series [3], in [7], in series [17], in series [19] and in [21] was inactive. Also, the bioavailability (in general, dose-corrected exposure relative to a reference, in per cent) in series [4] was 1.5%; in series [15], 3.9%. Also, the EC20 (usually the point of the concentration-response curve where the effect stands at 20%) in the series with HepG2 is above 86 µM. Further, the Tmax – broadly, the time from dosing to the highest level – was 60 to 120 min in series [5] and 30 min in [22]. Further, the maximum concentration (Cmax) (as a rule, the peak of the concentration-time curve) in series [6] came out at 1710 ng/g; in [10], 65 ng/mL; in series [12], 34 ng/mL. Moreover, the solubility entry in [8] is “Soluble”. In addition, the Drug uptake result in [9] is “Not Active”. The AUC(0-t) (usually exposure summed from dosing to a finite time, without extrapolation to infinity) at 24 h in series [11] stood at 583 ng·h/mL; in series [20], 72 ng·h/mL. The concentration ratio (Kp) (usually the ratio of the level in a tissue or fluid to that in plasma or blood) in series [14] was found to be 14.

(Values after ChEMBL document CHEMBL4428063, “Novel Pyrimidine Toll-like Receptor 7 and 8 Dual Agonists to Treat Hepatitis B Virus” (J Med Chem, 2016).)
